This passage reports EC50 results from US11787847B2, “Method of identifying malodor modulating compounds” (FIRMENICH SA, priority 2017, dated 2023).

Holding throughout (experiment): cell-based dose-response, cAMP increase by HTRF, HEK293T cells (endogenous RTP1 activated) co-transfected with human Golf, Lucy-FLAG-Rho tagged receptor
The target of assay [1] is T1, mouse receptor Olfr166 (Mus musculus, UniProt Q0VEL6).
T1 construct: cAMP HTRF
T1 sequence (Q0VEL6 1-312): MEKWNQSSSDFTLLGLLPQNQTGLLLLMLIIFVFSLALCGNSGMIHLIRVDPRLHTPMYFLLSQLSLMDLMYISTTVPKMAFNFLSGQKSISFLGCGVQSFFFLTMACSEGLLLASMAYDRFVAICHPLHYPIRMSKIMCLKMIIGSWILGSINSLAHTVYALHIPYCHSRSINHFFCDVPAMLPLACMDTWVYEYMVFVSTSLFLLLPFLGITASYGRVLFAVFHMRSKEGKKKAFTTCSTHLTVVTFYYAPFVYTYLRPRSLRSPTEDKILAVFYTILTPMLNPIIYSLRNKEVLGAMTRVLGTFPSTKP
As for the experimental part:
(§1) Functional dose-response experiments were performed to evaluate the level of DMTS activity of the modified cell line expressing individual putative DMTS receptors. Using a cell-based assay, mouse receptor Olfr1193, Olfr1093, Olfr1097, Olrf166, Olfr169, Olfr738 and Olfr742, and human receptor OR4S2 and OR52N5 were tested in an HEK293T cell line wherein the endogenous RTP1 gene has been activated and the odorant receptor chaperone protein was expressed (described in WO2016/201153). The mouse receptor genes were tagged with a Lucy-FLAG®-Rho tag combination and the human receptors were tagged with a Rho-FLAG® tag combination resulting in a tag:receptor fusion protein for the cell based assay. Receptor genes were co-transfected with the canonical olfactory human G-protein alpha subunit Golf gene and were exposed to increasing concentrations of the malodor odorant. Co-expression of the human Golf activates the Gs transduction pathway that leads to an internal cAMP increase upon binding to the appropriate ligand. Odorant-induced activity was detected by measuring the cAMP increase in the cytosol using an Homogeneous Time Resolved Fluorescence (HTRF) based kit (CisBio, cAMP dynamic 2 kit, cat. 62AM4PEJ). […] The activity levels are reported by the potency of the DMTS induced-response for each receptor as a measure of the EC50 value (the effective concentration at which the receptor responds at its half-maximal activation efficacy level for a given compound).
(§2) Functional dose-response experiments were performed to confirm the DMTS activity on the DMTS receptors identified in Example 2 and to further characterize their response to DMDS. Using the same cell-based assay described in Example 2, mouse receptors Olfr1193, Olfr1093, Olfr1097, Olfr166, Olfr169, Olfr738, Olfr742 and of human odorant receptor OR4S2 were tested with increasing concentration of DMTS, DMDS or butyric acid (control). […] A weak response for OR4S2 and Olfr169 to butyric acid was visible but was too weak to consider butyric acid as a representative ligand for these receptors. The activity levels are reported by the potency of DMTS or DMDS induced-response for each receptor as a measure of the EC50 value, EC50DMTS and EC50DMDS respectively. […] Competitive antagonists at the malodor binding site of these receptors have the potential to reduce the unpleasant perception of both DMTS and DMDS.

Assay [2] deals with T2, mouse receptor Olfr1093 (Mus musculus, UniProt B2RR12).
T2 construct: cAMP HTRF
T2 sequence (B2RR12 1-322): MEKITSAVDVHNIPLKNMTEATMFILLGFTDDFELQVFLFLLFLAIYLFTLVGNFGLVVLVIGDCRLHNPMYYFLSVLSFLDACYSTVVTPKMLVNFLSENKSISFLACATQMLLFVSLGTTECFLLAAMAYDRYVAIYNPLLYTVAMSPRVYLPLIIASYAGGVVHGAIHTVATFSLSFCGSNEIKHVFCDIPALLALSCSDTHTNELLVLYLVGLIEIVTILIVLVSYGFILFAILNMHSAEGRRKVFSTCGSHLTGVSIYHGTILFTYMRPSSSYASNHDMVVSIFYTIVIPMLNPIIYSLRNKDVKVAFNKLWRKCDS
As for the experimental part: as §1, §2

Assay [3] has as its target T3, mouse receptor Olfr1193 (Mus musculus, UniProt A2AV13).
T3 construct: cAMP HTRF
T3 sequence (A2AV13 1-318): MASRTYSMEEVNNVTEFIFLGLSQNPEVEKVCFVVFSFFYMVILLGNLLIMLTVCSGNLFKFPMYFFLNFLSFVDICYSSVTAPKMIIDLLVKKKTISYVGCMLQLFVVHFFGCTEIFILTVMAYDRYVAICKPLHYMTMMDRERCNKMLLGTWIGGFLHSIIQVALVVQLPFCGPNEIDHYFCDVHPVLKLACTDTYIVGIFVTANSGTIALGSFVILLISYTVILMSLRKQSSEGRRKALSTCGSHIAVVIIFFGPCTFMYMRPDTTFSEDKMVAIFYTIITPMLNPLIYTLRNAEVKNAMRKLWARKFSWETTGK
How it is done: as §1, §2

Assay [4] has as its target T4, mouse receptor Olfr169 (Mus musculus, UniProt Q7TS53).
T4 construct: cAMP HTRF
T4 sequence (Q7TS53 1-313): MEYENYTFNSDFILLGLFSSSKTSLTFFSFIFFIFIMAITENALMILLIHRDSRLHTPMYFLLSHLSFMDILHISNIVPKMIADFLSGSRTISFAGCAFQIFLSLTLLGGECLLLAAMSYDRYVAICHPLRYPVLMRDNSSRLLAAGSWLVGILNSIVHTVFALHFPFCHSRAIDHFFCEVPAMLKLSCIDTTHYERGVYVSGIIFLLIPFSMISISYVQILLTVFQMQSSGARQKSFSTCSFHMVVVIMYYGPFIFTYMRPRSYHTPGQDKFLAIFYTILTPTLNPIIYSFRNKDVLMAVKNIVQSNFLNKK
As for the experimental part:
as §1, §2

Assay [5] deals with T5, mouse receptor Olfr738 (Mus musculus, UniProt L7N1X7).
T5 construct: cAMP HTRF
T5 sequence (L7N1X7 1-311): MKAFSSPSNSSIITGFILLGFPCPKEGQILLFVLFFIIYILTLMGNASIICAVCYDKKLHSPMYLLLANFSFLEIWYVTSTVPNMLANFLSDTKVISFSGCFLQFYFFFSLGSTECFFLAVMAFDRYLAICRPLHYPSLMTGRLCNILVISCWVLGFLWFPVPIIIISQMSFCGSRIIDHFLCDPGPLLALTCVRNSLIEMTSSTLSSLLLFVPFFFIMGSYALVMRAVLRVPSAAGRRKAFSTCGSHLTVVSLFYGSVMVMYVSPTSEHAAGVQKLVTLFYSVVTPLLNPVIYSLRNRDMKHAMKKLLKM
How it is done: as §1, §2

Usually EC50 stands for the concentration at which the effect is half-maximal. With `CSSSC` [DMTS, dimethyl trisulfide], the half-maximal effective concentration (EC50) in assay [1] (FIG. 2, Example 2, SEQ ID NO: 8) is 5 µM; in assay [1] (FIG. 5, Example 5, SEQ ID NO: 8), 11 µM; in assay [2] (FIG. 2, Example 2, SEQ ID NO: 4), 46 µM; in assay [2] (FIG. 5, Example 5, SEQ ID NO: 4), 62 µM; in assay [3] (FIG. 2, Example 2, SEQ ID NO: 2), 55 µM; in assay [3] (FIG. 5, Example 5, SEQ ID NO: 2) it was 16 µM. Further, the 50% effective concentration (EC50) in assay [4] (FIG. 2, Example 2, SEQ ID NO: 10) worked out at 32 µM; in assay [4] (FIG. 5, Example 5, SEQ ID NO: 10), 23 µM; in assay [5] (FIG. 2, Example 2, SEQ ID NO: 12), 369 µM; in assay [5] (FIG. 5, Example 5, SEQ ID NO: 12), 190 µM.
